What all share (format): functional
Assay [1] has as its system Radical scavenging activity. The assay is described as follows: DPPH radical scavenging activity at 0.0156 g/L.
The subject of assay [2] is Radical scavenging activity. The assay is described as follows: DPPH radical scavenging activity at 0.0312 g/L. (In general: Loss of DPPH colour is used to gauge radical scavenging.)
Assay [3] concerns Radical scavenging activity. The assay is described as follows: DPPH radical scavenging activity at 0.0625 g/L.
For assay [4], the system named is Radical scavenging activity. The assay is described as follows: DPPH radical scavenging activity at 0.125 g/L.
Assay [5] deals with Radical scavenging activity. The assay is described as follows: DPPH radical scavenging activity at 0.250 g/L.

In the case of `COc1ccc(Nc2cc3sc(C)c(C)c3cc2C)cc1`, the Activity in assay [1] turned out to be 38.3%; in assay [2] it was 68.5%; in assay [3], 76.6%; in assay [4], 76.8%; in assay [5] it was 77%.

For `CCOC(=O)c1sc2ccccc2c1Nc1ccc(F)cc1`, the Activity in assay [1] came out at 0%; in assay [2] it was 0.54%; in assay [3], 0.72%; in assay [4], 0.86%; in assay [5], 0.9%.

For the molecule `COc1ccc(O)c(C(C)(C)C)c1.COc1ccc(O)cc1C(C)(C)C`, the Activity in assay [1] was determined as 41.2%; in assay [2], 63%; in assay [3], 75.7%; in assay [4] it was 83%; in assay [5], 84%.

Consider `CCOC(=O)c1sc2ccccc2c1Nc1ccc(OC)cc1`, for which the Activity is 0% in assay [1]; 0% in assay [2]; 0.4% in assay [3]; 0.74% in assay [4]; 0.78% in assay [5].

In the case of `CCOC(=O)c1sc2ccccc2c1Nc1ccc(OC)cc1OC`, the Activity was 20.8% in assay [1]; 34.8% in assay [2]; 51.1% in assay [3]; 64.7% in assay [4]; 74.8% in assay [5].

For the molecule `Cc1cc2c(C)c(C)sc2cc1Nc1ccc(F)cc1`, the Activity in assay [1] was 0%; in assay [2], 0%; in assay [3], 0%; in assay [4], 0.4%; in assay [5] it was 2.8%.

As for `COc1ccc(Nc2cc3sc(C)c(C)c3cc2C)cc1OC`, the Activity came out at 49% in assay [1]; 65.3% in assay [2]; 74.6% in assay [3]; 75% in assay [4]; 75.4% in assay [5].

`Cc1cc2c(C)c(C)sc2cc1Nc1ccccc1F`: the Activity in assay [1] is 0%; in assay [2] it was 0%; in assay [3], 0.52%; in assay [4] it was 0.54%; in assay [5], 1.21%.

In the case of `COc1ccc(Nc2c(C(=O)O)sc3ccccc23)c(OC)c1`, the Activity in assay [1] worked out at 8.9%; in assay [2], 30.7%; in assay [3] it was 44.7%; in assay [4] it was 63%; in assay [5], 84%.

Consider `Cc1cc(C(C)(C)C)c(O)c(C(C)(C)C)c1`, for which the Activity in assay [1] is 28%; in assay [2] it was 38.3%; in assay [3], 60%; in assay [4], 82.3%; in assay [5] it was 83%.

As for `Fc1ccc(Nc2csc3ccccc23)cc1`, the Activity stood at 26.8% in assay [1]; 44.7% in assay [2]; 67.7% in assay [3]; 83.4% in assay [4]; 85% in assay [5].

These data come from ChEMBL document CHEMBL1139035, “Evaluation of the antioxidant properties of diarylamines in the benzo[b]thiophene series by free radical scavenging activity and reducing power” (Bioorg Med Chem Lett, 2006).
